In patent US20250034183A1, “POLYMORPHIC FORMS AND METHODS OF PRODUCING POLYMORPHIC FORMS OF A COMPOUND” (Viking Therapeutics, Inc., priority 2022, published 2025):
Where “and” joins values, the source holds several entries; their conditions need not be identical. Equal values may be shown once. Entries after “also recorded” stand apart in the source; their conditions may differ. Where a name gives a salt, the structure may show the parent alone.

What was measured:
Assay type in all cases: physicochemical
[1] = Dynamic vapor sorption (DVS) hygroscopicity; settings: for Hygroscopicity / water uptake (DVS): 25° C., 5 to 95% RH
Description: DVS analysis was carried out using a TA Instruments Q5000 Dynamic Vapor Sorption analyzer. The instrument was calibrated with standard weights and a sodium bromide standard for humidity. Approximately 10-25 mg of sample was loaded into a metalcoated quartz pan for analysis. The sample was analyzed at 25° C. with a maximum equilibration time of one hour in 10% relative humidity (RH) steps from 5 to 95% RH (adsorption cycle) and from 95 to 5% RH (desorption cycle). The movement from one step to the next occurred either after satisfying the equilibrium criterion of 0.01% weight change or, if the equilibrium criterion was not met, after one hour. The percent weight change values were calculated using Microsoft Excel®.

[2] = Competitive slurry (interconversion) experiments, solid form by XRPD; settings: all competitive slurry conditions tested
Description: Solutions (˜2 mL) were saturated with Form A of Compound 1. Once saturated, they were centrifuged and the mother liquors were transferred to HPLC vials containing equal amounts (approximately 10 mg each) of Forms A, C, D, and E. The samples were then stirred magnetically at a specified temperature for 3 days. Solids were collected by vacuum filtration.

[3] = Kinetic solubility in water at 37° C.
Description: (§1) In SGF, concentrations were below 1 μg/mL up until 6 hours. The resulting solid was form A. In water, a concentration of 0.3 mg/mL was achieved within 2 minutes and concentration after 6 hours was about 0.5 mg/mL.
(§2) In SGF, concentrations were below 1 μg/mL up until 6 hours. The resulting solid was non-crystalline by XRPD. In water, a concentration of 2.3 mg/mL was achieved within 2 minutes and concentration after 6 hours was about 3.1 mg/mL.

[4] = Equilibrium aqueous solubility in water at ambient temperature
Description: Equilibrium solubility of Compound 1 and 1-A was measured in water at ambient temperature. A known volume of water was placed in a 1-dram glass vial and weight aliquots of Compound 1 or Compound 1-A were added while magnetically stirring at room temperature. If the solid dissolved, another aliquot of […] was added.

[5] = Kinetic solubility in simulated gastric fluid (SGF); settings: for Resulting solid after kinetic solubility in SGF (XRPD): SGF pH about 1.2; for Concentration in SFG: SGF pH about 1.2, 37° C.; for Concentrations in SGF up until 6 hours: SGF pH about 1.2, all time points up until 6 hours
Description: as §1, §2

Cc1cc(OCP(=O)(O)O)cc(C)c1Cc1ccc(O)c(Cc2ccccc2)c1 [Crystalline Form 2]
Hygroscopicity / water uptake (DVS) ([1]; listed as Crystal Form 2): moderately hygroscopic

Cc1cc(OCP(=O)(O)O)cc(C)c1Cc1ccc(O)c(Cc2ccccc2)c1 [Crystalline Form A]
Stability over humidity [1]: stable over a wide range of humidity | Hygroscopicity / water uptake (DVS) [1]: moderately hygroscopic; also recorded: moderate water uptake | Relative stability of crystal forms [2]: most stable form

Cc1cc(OCP(=O)(O)O)cc(C)c1Cc1ccc(O)c(Cc2ccccc2)c1 [Compound 1]
Concentration in water ([3]; 2 min): 300 µg/mL and 290 µg/mL | Concentration in water ([3]; 5 min): 330 µg/mL | Concentration in water ([3]; 10 min): 300 µg/mL | Concentration in water ([3]; 30 min): 290 µg/mL | Concentration in water ([3]; 60 min): 400 µg/mL | Concentration in water ([3]; 120 min): 410 µg/mL | Concentration in water ([3]; 240 min): 390 µg/mL | Concentration at 4 hours [4]: 300 µg/mL | Concentration at 24 hours [4]: 320 µg/mL | Concentration at 48 hours [4]: 320 µg/mL | Resulting solid after kinetic solubility in SGF (XRPD) [5]: form A | Concentration in SFG ([5]; 2 min): 0.4 µg/mL | Concentration in SFG ([5]; 5 min): 0.18 µg/mL | Concentration in SFG ([5]; 10 min): 0.11 µg/mL | Concentration in SFG ([5]; 30 min): 0.1 µg/mL | Concentration in SFG ([5]; 60 min): 0.07 µg/mL | Concentration in SFG ([5]; 120 min): 0.37 µg/mL | Concentration in SFG ([5]; 240 min): 0.15 µg/mL | Concentration in SFG ([5]; 360 min): 0.1 µg/mL | Concentrations in SGF up until 6 hours [5]: below 1 μg/mL

Cc1cc(OCP(=O)(O)O)cc(C)c1Cc1ccc(O)c(Cc2ccccc2)c1 [Compound 1-A, (2-dimethylamino)ethanol (“deanol”) salt of Compound 1]
Concentration in water ([3]; 2 min): 2250 µg/mL | Concentration in water ([3]; 5 min): 2660 µg/mL | Concentration in water ([3]; 10 min): 2980 µg/mL | Concentration in water ([3]; 30 min): 3070 µg/mL | Concentration in water ([3]; 60 min): 3140 µg/mL | Concentration in water ([3]; 120 min): 2280 µg/mL | Concentration in water ([3]; 240 min): 2870 µg/mL | Concentration in water ([3]; 360 min (6 hours)): 3070 µg/mL | Concentration at 4 hours [4]: 1450 µg/mL | Concentration at 24 hours [4]: 1430 µg/mL | Concentration at 48 hours [4]: 1420 µg/mL | Concentration in SFG ([5]; 2 min): 0.35 µg/mL | Concentration in SFG ([5]; 5 min): 0.17 µg/mL | Concentration in SFG ([5]; 10 min): 0.11 µg/mL | Concentration in SFG ([5]; 30 min): 0.08 µg/mL | Concentration in SFG ([5]; 60 min): 0.05 µg/mL | Concentration in SFG ([5]; 120 min): 0.28 µg/mL | Concentration in SFG ([5]; 240 min): 0.21 µg/mL | Concentration in SFG ([5]; 360 min): 0.07 µg/mL

Cc1cc(OCP(=O)(O)O)cc(C)c1Cc1ccc(O)c(Cc2ccccc2)c1 [Crystalline Form 3]
Hygroscopicity / water uptake (DVS) [1]: slight water uptake

Cc1cc(OCP(=O)(O)O)cc(C)c1Cc1ccc(O)c(Cc2ccccc2)c1 [Crystalline Form 1]
Resulting solid after kinetic solubility in water [3]: crystalline Form 3 | Concentration in water ([3]; 2 min, listed as Compound 1-A (Form 1)): 2300 µg/mL | Concentration in water ([3]; 360 min (6 hours), listed as Compound 1-A (Form 1)): about 3.1 mg/mL | Concentrations in SGF up until 6 hours [5]: below 1 μg/mL | Resulting solid after kinetic solubility in SGF (XRPD) ([5]; listed as Compound 1-A (Form 1)): non-crystalline
